Laboratory results published in US12544372B2, “Methods of treating rheumatoid arthritis, chronic spontaneous urticaria, and systemic lupus erythematosis using an inhibitor of Bruton's tyrosine kinase” (Genentech, Inc., priority 2019, dated 2026).

Tests used:
[1] = test system: patients with moderate to severe active rheumatoid arthritis; assay: Phase II RA study, Cohort 2 (inadequate response or intolerance to TNF therapy): clinical efficacy; format: in vivo, human; details: Cohort 2, 200 mg BID
Source text: A Two-Cohort Randomized Phase II, Double-Blind, Parallel Group Study in Patients with Active Rheumatoid Arthritis Evaluating the Efficacy and Safety of Fenebrutinib Compared with Placebo and Adalimumab in Patients with an Inadequate Response to Previous Methotrexate Therapy (Cohort 1) and Compared with Placebo in Patients with an Inadequate Response or Intolerance to Previous TNF Therapy (Cohort 2)
The study was a multicenter, Phase II, randomized, double-blind, placebo-controlled, active comparator (Cohort 1 only), parallel-group, dose-ranging study to evaluate the efficacy and safety of fenebrutinib in patients with moderate to severe active RA and an inadequate response to previous MTX therapy (Cohort 1) or MTX and TNF therapy who may have also had exposure to no more than one non-TNF inhibitor biologic (Cohort 2). Moderate to severe active RA was defined by ≥6 tender/painful joints on motion (68 joint count) and ≥6 swollen joints (66 joint count) at both screening and Day 1 (randomization), as well as a high sensitivity C-reactive protein (hsCRP)≥0. 400 mg/dL for Cohort 1 a hsCRP≥0.650 mg/dL for Cohort 2 at screening.
The study enrolled 578 patients. In Cohort 1, 480 MTX-IR patients were randomized to placebo (110 patients), ADA (111 patients), or one of three doses of fenebrutinib: 50 mg QD (40 patients), 150 mg QD (109 patients), or 200 mg BID (110 patients). In Cohort 2, 98 TNF-IR patients were randomized to placebo or 200 mg BID fenebrutinib. […]
ACR Assessments. The ACR's definition for calculating improvement in RA (ACR20) is calculated as a 20% improvement in tender and swollen joint counts and a 20% improvement in 3 of the 5 remaining ACR-core set measures: patient and physician global assessments, pain, disability, and an acute-phase reactant. Similarly, ACR50 and ACR70 are calculated with the respective percent improvements. […]

CD3+ T cells = assay: RA study: CD3+ T cells (flow cytometry); format: in vivo, human; details: cohort 1 and cohort 2, week 1
Protocol: Biomarkers were evaluated in serum or plasma samples at baseline and weeks 1, 4, and 12 in patients with available samples (cohort 1: n=438; cohort 2: n=86). The biomarkers evaluated in this assessment were chemokine [C-C motif] ligand 4 (CCL4), IL-6, and TNF-like cytokine 1A (TL1A). Total IgM, IgG, rheumatoid factor IgM autoantibody (RF), CCL4, TL1A, IL-6, and anti-CCP autoantibody (ACPA IgG) levels were analyzed with immunoassays. CD19^+ B cells and CD3^+ T cells were measured by flow cytometry. The proportion of patients achieving an ACR50 response at week 12 and the change in DAS28 score by week 12 were assessed relative to seropositivity (RF and/or ACPA positive at baseline) or baseline levels of RF in both cohorts. To select which biomarkers to evaluate in this trial, BTK-dependent myeloid biomarkers were identified using peripheral blood CD14^+ monocytes stimulated with immune-complexes in the presence or absence of a BTK inhibitor. In brief, the expression levels of genes in human monocytes were assayed under conditions of no stimulation; with human serum albumin immune complex stimulation; with stimulation and a low concentration of a BTK inhibitor with similar characteristics to fenebrutinib; or with stimulation and a high concentration of the BTK inhibitor. […] Genes annotated with cytokine activity were selected. The color bar represents normalized gene expression.

C[C@H]1CN(C2COC2)CCN1c1ccc(Nc2cc(-c3ccnc(N4CCn5c(cc6c5CC(C)(C)C6)C4=O)c3CO)cn(C)c2=O)nc1 [fenebrutinib, (S)-2-(3′-(hydroxymethyl)-1-methyl-5-((5-(2-methyl-4-(oxetan-3-yl)piperazin-1-yl)pyridin-2-yl)amino)-6-oxo-1,6-dihydro-[3,4′-bipyridin]-2′-yl)-7,7-dimethyl-2,3,4,6,7,8-hexahydro-1H-cyclopenta[4,5]pyrrolo[1,2-a]pyrazin-1-one]
DAS 28-3 (CRP) Adjusted Mean ([1]; Week 12): −1.96
ACR50 Weighted Difference vs Placebo ([1]; Week 12 Day 84): 13.85
DAS 28-3 (CRP) Difference (d) ([1]; versus placebo, Week 12): −0.76
CD3+ T cells relative to placebo (CD3+ T cells): +10-15%
